From patent US20090068290A1, “BIFEPRUNOX DOSES FOR TREATING SCHIZOPHRENIA” (priority 2006, published 2009)

Legend:
[1] = system: adult subjects with schizophrenia; assay: Adverse events (TEAE, SAE, special interest, discontinuation, EPS-related TEAE), Clinical Study Three; conditions: for safety and tolerability: bifeprunox 20 mg and 30 mg, 6 weeks
Procedure: There were four treatment arms in this study, approximately 144 subjects per arm. […] After completing the Single-Blind Placebo Lead-in Period of at least three days, bifeprunox-treated subjects were titrated from 0.25 mg up to 20 mg/day or 30 mg/day according to a standardized titration scheme over a seven- or eight-day period, respectively. When the assigned dose was reached, subjects were maintained at that dose for the remainder of the six week treatment period. […] Subjects were hospitalized (if not already inpatients) after eligibility for study entry was verified, starting from the Screening Visit until at least 10 days after Baseline. Subjects could be hospitalized longer than 10 days if considered medically necessary by the Investigator. Rating scale assessments for efficacy and abnormal movement disorders were done weekly except for Week 5. Safety assessments were performed at Screening, during treatment and at the end of the study. Subject satisfaction with study medication was assessed at Week 6. Samples of whole blood were obtained at Weeks 2, 4, and 6 for determination of bifeprunox in plasma.
EPS were assessed using treatment-emergent adverse events such as akathisia, dyskinesia, parkinsoniam, etc. and/or formal rating scales such as SAS, BAS, and/or AIMS.

[2] = system: adult subjects with schizophrenia; assay: PANSS positive symptom subscale score, Clinical Study Two; assay type: in vivo, human; conditions: LOCF, ITT; for PANSS Positive Symptom Subscale Score, Trt Effect (bifeprunox—placebo): ANCOVA
Procedure: (§1) Rating scale assessments were performed weekly, except for week 5, to measure the change from baseline to endpoint of the PANSS total score. Other assessments included: PANSS positive symptom subscale score, PANSS negative symptom subscale score, PANSS general pschopathology subscale score, BPRS total score, BPRS psychosis score, the CGI-S score, the CGI-I score, responder rates based on the PANSS total score, and the Calgary Depression Scale for Schizophrenia (CDSS). […]
(§2) Subjects who completed this study had the option to continue in the long-term. […] Risperidone-treated subjects were titrated from 2 mg to 6 mg daily over a three-day period and were subsequently maintained at 6 mg/day for the remainder of the treatment period. […] Blood samples were also obtained at Screening/Baseline, Week 3, and Week 6 for clinical laboratory assessments.

[3] = system: adult subjects with schizophrenia; assay: BPRS psychosis cluster score, Clinical Study Two; assay type: in vivo, human; conditions: for Change from Baseline in BPRS Psychosis Cluster Score, Mean (SD) / Change from Baseline in BPRS Psychosis Cluster Score, Median / Change from Baseline in BPRS Psychosis Cluster Score, Trt Effect (bifeprunox—placebo) / mean change (SD) from Baseline to Endpoint in BPRS psychosis cluster score: LOCF; for Change from Baseline in BPRS Psychosis Cluster Score, Mean (SD) / Change from Baseline in BPRS Psychosis Cluster Score, Median / Change from Baseline in BPRS Psychosis Cluster Score, Trt Effect (bifeprunox—placebo): ITT population; for BPRS psychosis cluster score, treatment effect (bifeprunox—placebo): Endpoint LOCF; for mean change (SD) from Baseline to Endpoint in BPRS psychosis cluster score: ITT
Procedure: as §1, §2

[4] = Bifeprunox 30 mg, Week 6/Endpoint
[5] = Bifeprunox 40 mg, Week 6/Endpoint

Structure (SMILES): O=c1[nH]c2cccc(N3CCN(Cc4cccc(-c5ccccc5)c4)CC3)c2o1 [Bifeprunox, 7-[4-([1,1′-biphenyl]-3-ylmethyl)-1-piperazinyl]-2(3H)-benzoxazolone]
- MUSCULOSKELETAL STIFFNESS, % ([1]; BX 40 mg): 1 (<1%)
- MYALGIA, % ([1]; BX 40 mg): 1%
- NEOPLASMS BENIGN, MALIGNANT AND UNSPECIFIED (INCL CYSTS AND POLYPS), % ([1]; BX 40 mg): 1 (<1%)
- NERVOUS SYSTEM DISORDERS, % ([1]; BX 40 mg): 37%
- NEUROLOGICAL SYMPTOM, % ([1]; BX 40 mg): 1 (<1%)
- PAIN IN JAW, % ([1]; BX 40 mg): 1 (<1%)
- PARAESTHESIA, % ([1]; BX 40 mg): < 1%
- SEDATION, % ([1]; BX 40 mg): 7%
- SOMNOLENCE, % ([1]; BX 40 mg): 3%
- SYNCOPE VASOVAGAL, % ([1]; BX 40 mg): 1%
- TREMOR, % ([1]; BX 40 mg): 3%
- incidence of dizziness (TEAE of special interest) ([1]; Bifeprunox 30 mg): 10%
- orthostatic hypotension (special interest TEAE) ([1]; Bifeprunox 30 mg): three subjects
- subjects with at least one AE that led to study termination ([1]; Bifeprunox 30 mg): 7%
- subjects with at least one SAE ([1]; Bifeprunox 30 mg): 8%
- subjects with at least one TEAE ([1]; Bifeprunox 30 mg): 77%
- subjects with at least one special interest TEAE ([1]; Bifeprunox 30 mg): 13%
- syncope vasovagal (special interest TEAE) ([1]; Bifeprunox 30 mg): two subjects
- incidence of dizziness (TEAE of special interest) ([1]; bifeprunox 20 mg): 8%
- subjects with at least one AE that led to study termination ([1]; bifeprunox 20 mg): 8%
- subjects with at least one SAE ([1]; bifeprunox 20 mg): 10%
- subjects with at least one TEAE ([1]; bifeprunox 20 mg): 82%
- subjects with at least one special interest TEAE ([1]; bifeprunox 20 mg): 11%
- safety and tolerability [1]: well tolerated at both dose levels
- safety and tolerability ([1]; listed as bifeprunox): safe and well tolerated
- subjects who discontinued study medication due to an AE ([1]; bifeprunox groups (20, 30 mg), each): 8%
- Change from Baseline in PANSS Positive Symptom Subscale Score, Mean (SD) ([2]; Bifeprunox 30 mg, Week 1): −2.3 (3.6)
- Change from Baseline in PANSS Positive Symptom Subscale Score, Median ([2]; Bifeprunox 30 mg, Week 1): −2
- Change from Baseline in PANSS Positive Symptom Subscale Score, Mean (SD) ([2]; Bifeprunox 30 mg, Week 2): −4.1 (5.3)
- Change from Baseline in PANSS Positive Symptom Subscale Score, Median ([2]; Bifeprunox 30 mg, Week 2): −3
- Change from Baseline in PANSS Positive Symptom Subscale Score, Mean (SD) ([2]; Bifeprunox 30 mg, Week 3): −4.5 (5.6)
- Change from Baseline in PANSS Positive Symptom Subscale Score, Median ([2]; Bifeprunox 30 mg, Week 3): −4
- Change from Baseline in PANSS Positive Symptom Subscale Score, Mean (SD) ([2]; Bifeprunox 30 mg, Week 4): −4.4 (5.9)
- Change from Baseline in PANSS Positive Symptom Subscale Score, Median ([2]; Bifeprunox 30 mg, Week 4): −4
- Change from Baseline in PANSS Positive Symptom Subscale Score, Mean (SD) [2, 4]: −4.5 (6.6)
- Change from Baseline in PANSS Positive Symptom Subscale Score, Median [2, 4]: −4
- PANSS Positive Symptom Subscale Score, Trt Effect (bifeprunox—placebo) [2, 4]: −1.9
- Change from Baseline in PANSS Positive Symptom Subscale Score, Mean (SD) ([2]; Bifeprunox 40 mg, Week 1): −2.8 (3.9)
- Change from Baseline in PANSS Positive Symptom Subscale Score, Median ([2]; Bifeprunox 40 mg, Week 1): −2
- Change from Baseline in PANSS Positive Symptom Subscale Score, Mean (SD) ([2]; Bifeprunox 40 mg, Week 2): −3.6 (5.7)
- Change from Baseline in PANSS Positive Symptom Subscale Score, Median ([2]; Bifeprunox 40 mg, Week 2): −3
- Change from Baseline in PANSS Positive Symptom Subscale Score, Mean (SD) ([2]; Bifeprunox 40 mg, Week 3): −4.1 (6.3)
- Change from Baseline in PANSS Positive Symptom Subscale Score, Median ([2]; Bifeprunox 40 mg, Week 3): −4
- Change from Baseline in PANSS Positive Symptom Subscale Score, Mean (SD) ([2]; Bifeprunox 40 mg, Week 4): −3.7 (6.6)
- Change from Baseline in PANSS Positive Symptom Subscale Score, Median ([2]; Bifeprunox 40 mg, Week 4): −3
- Change from Baseline in PANSS Positive Symptom Subscale Score, Mean (SD) [2, 5]: −4.2 (6.9)
- Change from Baseline in PANSS Positive Symptom Subscale Score, Median [2, 5]: −4
- PANSS Positive Symptom Subscale Score, Trt Effect (bifeprunox—placebo) [2, 5]: −1.7
- Change from Baseline in BPRS Psychosis Cluster Score, Mean (SD) ([3]; Bifeprunox 30 mg, Week 1): −1.7 (2.3)
- Change from Baseline in BPRS Psychosis Cluster Score, Median ([3]; Bifeprunox 30 mg, Week 1): −1
- Change from Baseline in BPRS Psychosis Cluster Score, Median ([3]; Bifeprunox 30 mg, Week 2): −2
- Change from Baseline in BPRS Psychosis Cluster Score, Mean (SD) ([3]; Bifeprunox 30 mg, Week 3): −3.1 (3.8)
- Change from Baseline in BPRS Psychosis Cluster Score, Median ([3]; Bifeprunox 30 mg, Week 3): −2
- Change from Baseline in BPRS Psychosis Cluster Score, Mean (SD) ([3]; Bifeprunox 30 mg, Week 4): −3.1 (3.8)
- Change from Baseline in BPRS Psychosis Cluster Score, Median ([3]; Bifeprunox 30 mg, Week 4): −3
- Change from Baseline in BPRS Psychosis Cluster Score, Mean (SD) [3, 4]: −3.2 (4.2)
- Change from Baseline in BPRS Psychosis Cluster Score, Median [3, 4]: −3
- Change from Baseline in BPRS Psychosis Cluster Score, Trt Effect (bifeprunox—placebo) [3, 4]: −1.4
- Change from Baseline in BPRS Psychosis Cluster Score, Mean (SD) ([3]; Bifeprunox 40 mg, Week 1): −1.7 (2.6)
- Change from Baseline in BPRS Psychosis Cluster Score, Median ([3]; Bifeprunox 40 mg, Week 1): −1
- Change from Baseline in BPRS Psychosis Cluster Score, Mean (SD) ([3]; Bifeprunox 40 mg, Week 2): −2.2 (3.5)
- Change from Baseline in BPRS Psychosis Cluster Score, Median ([3]; Bifeprunox 40 mg, Week 2): −2
- Change from Baseline in BPRS Psychosis Cluster Score, Mean (SD) ([3]; Bifeprunox 40 mg, Week 3): −2.5 (4.0)
- Change from Baseline in BPRS Psychosis Cluster Score, Median ([3]; Bifeprunox 40 mg, Week 3): −2
- Change from Baseline in BPRS Psychosis Cluster Score, Mean (SD) ([3]; Bifeprunox 40 mg, Week 4): −2.5 (4.2)
- Change from Baseline in BPRS Psychosis Cluster Score, Median ([3]; Bifeprunox 40 mg, Week 4): −1
- Change from Baseline in BPRS Psychosis Cluster Score, Mean (SD) [3, 5]: −2.6 (4.4)
- Change from Baseline in BPRS Psychosis Cluster Score, Median [3, 5]: −2
- Change from Baseline in BPRS Psychosis Cluster Score, Trt Effect (bifeprunox—placebo) [3, 5]: −1.0
- BPRS psychosis cluster score, treatment effect (bifeprunox—placebo) ([3]; bifeprunox 30 mg): −1.4
- mean change (SD) from Baseline to Endpoint in BPRS psychosis cluster score ([3]; bifeprunox 30 mg): −3.2 (4.2)
- BPRS psychosis cluster score, treatment effect (bifeprunox—placebo) ([3]; bifeprunox 40 mg): −1.0
- mean change (SD) from Baseline to Endpoint in BPRS psychosis cluster score ([3]; bifeprunox 40 mg): −2.6 (4.4)
